Test results published in patent US7393828B2, “Modified MscL protein channel” (Applied NanoSystems B.V., priority 2003, dated 2008).

Columns and labels:
[1] = target: MscL channel protein (G22C, cysteine at 22nd position) (Escherichia coli, UniProt P0A742, G22C); settings: for channel activity of modified protein in response to pH: same sample in the same buffer at different pHs; for pH at which channel activity starts: buffers at different pHs
Source text: All synthesized compounds were attached to the MscL protein from E. coli via cysteine modification. In this example, the 22nd position of the protein was mutated to a cysteine.
A membrane pellet fraction was obtained from a fermentor culture of E. coli pB104 cells containing the plasmid PB104 carrying the MscL(G22C)-6His construct. MscL was isolated to near homogeneity via a single nickel-nitriloacetic acid (Ni-NTA) metal-affinity chromatography step.
The protein modification reaction was stopped and the excess label was removed by applying the sample into a gel filtration column. The protein concentration of elution fractions was determined by Bradford Assay.
The modified protein was reconstituted in synthetic lipid membranes in order to follow the channel activity. For this purpose, DOPC:Cholesterol:DSPE-PEG (70:20:10 Molar ratio) liposomes were titrated with Triton-X100 until saturation. Titrated liposomes were mixed with modified protein in 1:120 (wt:wt) protein to lipid ratio. Biobeads were used to remove the detergent. A self-quenching dye, calcein, was added and included into the interior of the proteoliposomes during reconstitution.
Proteoliposomes containing modified MscL protein were analyzed by a fluorescent dye efflux assay. The activity of the channel was measured as an increase in the fluorescence of a reporter molecule, the dye calcein. Calcein is included in the liposome interior at a self-quenching concentration, but when the calcein escapes into the exterior medium, the dilution is such that quenching is completely abolished.
During reconstitution of the protein into the mixture of synthetic lipids in the presence of a detergent, a self-quenching dye, calcein, is also added into the mixture to a final concentration of 50 mM. After the reconstitution is completed by the removal of the detergent, the calcein-containing liposomal fraction was separated from the unencapsulated free calcein by passing the sample through a Sephadex G50 size exclusion column (FIG. 7A).
A portion of the liposomal fraction is placed in 2 ml iso-osmotic buffer and the activity of the channels is followed by measuring the increase in fluorescence as calcein becomes dequenched upon being released through the channel protein in response to a stimulus (FIG. 7B). Fluorescence was monitored with a SLM 500 spectrofluorometer Excitation and emission wavelengths were 490 (slit 2 nm) and 520 nm (slit 4 nm), respectively. A positively charged MTS reagent (MTSET) was used as a positive control.
The MscL protein was modified with the different pH-responsive compounds. The activity of the channel in response to pH was analyzed by the calcein efflux assay. In order to do that, the same buffer at different pHs were prepared and the same sample is analyzed in each buffer.
The MscL protein was modified with a light-sensitive compound. The activity of the channel was analyzed in response to pH. After measuring the initial fluorescence value for samples at each pH, they were exposed to 366 nm light for five to ten minutes. Then, the measurement was continued as before.
The protein from cysteine mutant MscL (cysteine in its 22nd amino acid position) was isolated and modified as explained in Example 2, except that the light-responsive compound E (see FIG. 12c) (P6—C1[X═I]) was dissolved in DM50 and incubated with the protein at a 1:500 molar ratio (protein:compound) for 45 minutes.
(§1) The resulting modified channel was reconstituted in the presence of a fluorescent dye as explained in Example 3 for the calcein efflux experiment. Another sample of the modified channel was prepared for patch clamp experiments as indicated in Example 6.
The protein was isolated and modified as in Example 2 and reconstituted in the presence of calcein as indicated in Example 3.

[2] = target: MscL channel protein (cysteine in its 22nd amino acid position) (Escherichia coli, UniProt P0A742, G22C)
Protocol: The activity of the chemically modified MscL is analyzed real time at the single molecule level with patch clamp, a classical electrophysiological technique. This technique allows sealing a patch of membrane, which has embedded channel proteins in it, into the tip of a glass micropipette, and monitoring the ionic current flowing through the open channels in response to different conditions.
As a mechanosensitive channel, unmodified MscL needs a significant amount of tension on the membrane to gate. In patch clamp conditions, it corresponds to the application of negative pressure almost as high as that causing rupturing of the patched membrane.
The channel activity was measured by following its conductance.
The protein from cysteine mutant MscL (cysteine in its 22nd amino acid position) was isolated, modified and reconstituted as explained in Example 2. After reconstitution, giant proteoliposomes were prepared as indicated (A. H. Delcour, B. Martinac, F. R. Blattner, C. Kung, Biophys. J. 1989, 56:631-636). Ten μl rehydrated lipids were placed in 100 μl bath solution and resulting giant liposomes were patched by using glass pipettes with 1 μm tip size. They were made from 100 μl borosilicate capillaries in Sutter 97/IVF micropipette puller. Single channel recordings were performed at +20 mV in symmetrical buffer conditions in 200 mM KCl, 100 mM MgCl2, 5 mM HEPES, pH 6-8. Data were amplified and filtered in Axopatch1D amplifier and sampled in Digidata 1322A digitizer. Recordings were analyzed with pCLAMP8 software.
as §1
Membranes having modified channels were patched at dark or five to ten minutes after illumination with 366 nm light.

[3] = target: double cysteine MscL mutant (22nd and 23rd positions) (Escherichia coli, UniProt P0A742, G22C/V23C)
Source text: In order to further improve modulation of the activity of chemically modified MscL, in addition to the amino acid at the 22nd position of the channel, the 23rd position is also replaced with cysteine. This way, if all the subunits are modified, one can introduce two times more charge.
This example compares the single- and double-cysteine mutants for their performance in efflux from proteoliposomes.
The protein from each mutant was obtained and modified with the Compound C (Q1[R1═R2=Me]-L1[n=2]—C3), as explained in Example 2, and the reconstitution for calcein efflux assay was as in Example 3.

[4] = Solubility of the product in common solvents; assay type: physicochemical

MscL channel protein (cysteine in its 22nd amino acid position), sequence (P0A742 whole entry G22C): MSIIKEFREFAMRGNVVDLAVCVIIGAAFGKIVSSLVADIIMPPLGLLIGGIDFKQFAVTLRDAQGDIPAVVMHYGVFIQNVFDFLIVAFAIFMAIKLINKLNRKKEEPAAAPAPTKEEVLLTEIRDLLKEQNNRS
MscL channel protein (G22C, cysteine at 22nd position), sequence (P0A742 whole entry G22C): as above
double cysteine MscL mutant (22nd and 23rd positions), sequence (P0A742 whole entry G22C/V23C): as the sequence (P0A742 whole entry G22C) above, with V23C counted along it

For `C[N+](C)(C)CCSS(C)(=O)=O.[Br-]` [MTSET, [2-(Trimethylammonium)-ethyl]-methanethiosulfonate bromide, reference compound], the “channel opening after reaction with free sulfhydryl at 22nd position (positive control)” value ([1]; MTSET 0.8 mM final concentration as trigger) was “always opens the channel”.
For `CS(=O)(=O)SCCOC(=O)CN` [compound A], the “channel activity at physiological pH” value ([1]; physiological pH) was “some activity” and the “channel activity of modified protein in response to pH” value [1] was “pH-dependent activation, especially at lower pHs”.
For `CNCC(=O)OCCSS(C)(=O)=O` [compound B], the “pH at which channel activity starts” value [1] was under 8 pH, the pKa ([1]; compound attached to MscL) was “approximately 8” and the “channel activity of modified protein in response to pH” value [1] was “pH-dependent activation”. For the same compound, the “channel gating in patch clamp at pH 6.2” value ([2]; pH 6.2, n=4) was “gated even without any applied negative pressure”, the “mean negative pressure applied (until membrane rupture, no gating)” value ([2]; pH 7.2, n=10) was 79 mmHg and the “channel activity in patch clamp at pH 7.2” value ([2]; pH 7.2, n=10, negative pressure applied until the patched membrane ruptured) was “did not give any activity”.
With `CN(C)CC(=O)OCCSS(C)(=O)=O` [compound C] the “pH at which channel activity starts” value [1] was about 7.03 pH, the “release of liposomal content at high pH, single mutant” value ([1]; high pH) was “did not release the liposomal content” and the “channel activity at pH 7.5” value ([1]; pH 7.5) was “no activity”. The “pH dependence of gating in patch clamp” value ([2]; different pHs) was “gated only at low pH environment”, the “channel gating in patch clamp at pH 6.3” value ([2]; pH 6.3) was “spontaneous gating” and the “release of liposomal content at high pH, double mutant” value ([3]; high pH) was “did not release the liposomal content”. For the same compound, the “release at low pH, double mutant compared with single mutant” value ([3]; low pH, two separate experiments) was “better release”.
With `COc1cc(COC(=O)NCCSS(C)(=O)=O)c([N+](=O)[O-])cc1OC` [compound D, methanethiosulfonic acid S-[2-(4,5-dimethoxy-2-nitro-benzyloxycarbonylamino)-ethyl] ester] the “channel activity after cleavage of the light-sensitive part” value ([1]; after 366 nm light for five to ten minutes, different pHs) was “pH-dependent activity”, the “channel activity before photolysis” value ([1]; no illumination, different pHs) was “stayed inactive until the photolysis occurs” and the “solubility in DMF and DMSO” value ([4]; DMF, DMSO) was “soluble”. For the same compound, the “solubility in dichloromethane and chloroform” value ([4]; dichloromethane, chloroform) was “a little soluble” and the “solubility in other common solvents” value ([4]; other common solvents) was “very badly soluble”.
With `COc1cc(COC(=O)CI)c([N+](=O)[O-])cc1OC` [compound E, 4.5-dimethoxy-2-nitrobenzyl 2-iodoacetate] the “release of fluorescent dye in the dark” value ([1]; dark, iso-osmotic conditions) was “did not give any release”, the “release of fluorescent dye after illumination” value ([1]; exposed to ultraviolet light, iso-osmotic conditions) was “released the fluorescent dye as soon as proteoliposomes were exposed to ultraviolet light” and the “channel gating in patch clamp at dark” value ([2]; dark, negative pressure up to membrane rupture) was “no channel gating”. The “channel gating in patch clamp after illumination” value ([2]; five to ten minutes after illumination with 366 nm light, no tension) was “gated simultaneously with no tension”.
